This is an account of results in patent publication US20250163104A1, “MACROCYCLIC IMMUNOMODULATORS” (priority 2021, published 2025).

What is called IC50 is the midpoint of a concentration-inhibition curve.

*1 amine or outer side, *2 acyl side, *3 side chain or, on linkers, in order; H or OH if unused. Where a SMILES comes first, the peptide text is derived from it. Bridges are numbered along the chain shown (N, C = ends). [ ]: non-standard residue; d: D form. The star is where a group is joined. ξ: configuration not given here. Bip = N[C@@H](Cc1ccc(-c2ccccc2)cc1)C(=O)O; Phe(3-Me) = Cc1cccc(C[C@H](N)C(=O)O)c1; 4Pal = N[C@@H](Cc1ccncc1)C(=O)O; Cha = N[C@@H](CC1CCCCC1)C(=O)O; Cit = NC(=O)NCCC[C@H](N)C(=O)O; X6 = O=C(C(CCCO)N[*:1])[*:2]; ξCit = NC(=O)NCCCC(N)C(=O)O; Carboxymethyl = O=C(O)C*; Orn = NCCC[C@H](N)C(=O)O; Pra = C#CC[C@H](N)C(=O)O; Dab = NCC[C@H](N)C(=O)O; Dap = NC[C@H](N)C(=O)O; ξOrn = NCCCC(N)C(=O)O

T1 sequence (Q15116 25-288): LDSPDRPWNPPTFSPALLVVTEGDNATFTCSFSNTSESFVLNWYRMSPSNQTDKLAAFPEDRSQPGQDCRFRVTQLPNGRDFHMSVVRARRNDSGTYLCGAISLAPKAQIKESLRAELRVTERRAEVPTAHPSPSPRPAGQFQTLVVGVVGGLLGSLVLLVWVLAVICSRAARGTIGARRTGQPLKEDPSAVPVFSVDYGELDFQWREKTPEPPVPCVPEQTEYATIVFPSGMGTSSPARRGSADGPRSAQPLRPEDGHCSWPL

This assay addresses T1, human PD-1 / PD-L1-Ig binding on Jurkat cell line over-expressing human PD-1 (Jurkat-PD-1) (Homo sapiens, UniProt Q15116).
T1 construct: expressed in transfected cells; host or cells: Jurkat
In words: Jurkat-PD-1 Cell Binding High-Content Screening Assay (CBA). The format is cell-based. The settings on record: Jurkat-PD-1 cells, PE-labeled PD-L1-Ig 20 nM final; read-out: Jurkat HPD1_PDL1 IC50. In a few lines: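 Cell-bound PE-labeled PD-L1-Ig (20 nM final, 1 h) measured by high-content imaging after fixation and Hoechst 33342 counterstain. Compound was applied first for 2 h at 37° C. to Jurkat cells over-expressing human PD-1 in DMEM with 10% FCS.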
As to `CCC(C)[C@@H]1NC(=O)[C@H](Cc2ccc(-c3ccccc3)cc2)NC(=O)[C@H](C(C)C)NC(=O)[C@H](Cc2ccc(F)c(C(F)(F)F)c2)NC(=O)[C@H](CC(=O)O)NC(=O)[C@H](Cc2ccc(OCC(=O)O)cc2)NC(=O)[C@H](CN)NC(=O)CSC[C@@H](C(=O)N[C@@H](C)C(N)=O)NC(=O)[C@H]([C@@H](C)O)NC(=O)[C@H](C(C)C)NC(=O)[C@H](CC2CCCCC2)NC(=O)[C@H](CCN)NC(=O)[C@@H](CC(C)C)NC(=O)[C@H](CCCN)NC1=O` (stereo partly drawn) [Compound 2245], the IC50 was 45.5 nM. The same measure for `CCC(C)[C@@H]1NC(=O)[C@H](Cc2ccc(-c3ccccc3)cc2)NC(=O)[C@H](C(C)C)NC(=O)[C@H](Cc2cc(OC)c(F)cc2F)NC(=O)[C@H](CC(=O)O)NC(=O)[C@H](Cc2ccc(OCC(=O)O)cc2)NC(=O)[C@H](CN)NC(=O)CSC[C@@H](C(=O)N[C@@H](C)C(N)=O)NC(=O)[C@H]([C@@H](C)O)NC(=O)[C@H](C(C)C)NC(=O)[C@H](CC2CCCCC2)NC(=O)[C@H](CCN)NC(=O)[C@@H](CC(C)C)NC(=O)[C@H](CCCN)NC1=O` (stereo partly drawn) [Compound 2246]: 13.2 nM; for `CCC(C)[C@@H]1NC(=O)[C@H](Cc2ccc(-c3ccccc3)cc2)NC(=O)[C@H](C(C)C)NC(=O)[C@H](Cc2cc(C)ccc2F)NC(=O)[C@H](CC(=O)O)NC(=O)[C@H](Cc2ccc(OCC(=O)O)cc2)NC(=O)[C@H](CN)NC(=O)CSC[C@@H](C(=O)N[C@@H](C)C(N)=O)NC(=O)[C@H]([C@@H](C)O)NC(=O)[C@H](C(C)C)NC(=O)[C@H](CC2CCCCC2)NC(=O)[C@H](CCN)NC(=O)[C@@H](CC(C)C)NC(=O)[C@H](CCCN)NC1=O` (stereo partly drawn) [Compound 2247]: 13.3 nM. The value for `CCC(C)[C@@H]1NC(=O)[C@H](Cc2ccc(-c3ccccc3)cc2)NC(=O)[C@H](C(C)C)NC(=O)[C@H](Cc2cc(OC)ccc2F)NC(=O)[C@H](CC(=O)O)NC(=O)[C@H](Cc2ccc(OCC(=O)O)cc2)NC(=O)[C@H](CN)NC(=O)CSC[C@@H](C(=O)N[C@@H](C)C(N)=O)NC(=O)[C@H]([C@@H](C)O)NC(=O)[C@H](C(C)C)NC(=O)[C@H](CC2CCCCC2)NC(=O)[C@H](CCN)NC(=O)[C@@H](CC(C)C)NC(=O)[C@H](CCCN)NC1=O` (stereo partly drawn) [Compound 2248] was 13.8 nM; that for `CCC(C)[C@@H]1NC(=O)[C@H](Cc2ccc(-c3ccccc3)cc2)NC(=O)[C@H](C(C)C)NC(=O)[C@H](Cc2cc(C)ccc2OC)NC(=O)[C@H](CC(=O)O)NC(=O)[C@H](Cc2ccc(OCC(=O)O)cc2)NC(=O)[C@H](CN)NC(=O)CSC[C@@H](C(=O)N[C@@H](C)C(N)=O)NC(=O)[C@H]([C@@H](C)O)NC(=O)[C@H](C(C)C)NC(=O)[C@H](CC2CCCCC2)NC(=O)[C@H](CCN)NC(=O)[C@@H](CC(C)C)NC(=O)[C@H](CCCN)NC1=O` (stereo partly drawn) [Compound 2249] was 134 nM. The same measure for `CC(C)C[C@H]1NC(=O)[C@H](CCCN)NC(=O)[C@H](CCCCN)NC(=O)[C@H](Cc2ccc(-c3ccccc3)cc2)NC(=O)[C@H](C(C)C)NC(=O)[C@H](Cc2c[nH]c3ccccc23)NC(=O)[C@H](CC(=O)O)NC(=O)[C@H](Cc2ccncc2)NC(=O)[C@H](CN)NC(=O)CSC[C@@H](C(=O)N[C@@H](CCCN)C(N)=O)NC(=O)[C@H]([C@@H](C)O)NC(=O)[C@H](C(C)C)NC(=O)[C@H](CC2CCCCC2)NC(=O)[C@H](CCN)NC1=O` [Compound 2250] ({CH2CO}-[Dap][4Pal]DWV[Bip]K[Orn][dL][Dab][Cha]VTC[Orn]-NH2; thioether N-14): 43.8 nM; for `CC(C)C[C@H]1NC(=O)[C@H](CCCN)NC(=O)[C@H](CCCCN)NC(=O)[C@H](Cc2ccc(-c3ccccc3)cc2)NC(=O)[C@H](C(C)C)NC(=O)[C@H](Cc2c[nH]c3ccccc23)NC(=O)[C@H](CC(=O)O)NC(=O)[C@H](Cc2ccncc2)NC(=O)[C@H](CN)NC(=O)CSC[C@@H](C(=O)N[C@@H](CCCN)C(N)=O)NC(=O)[C@H](CN)NC(=O)[C@H](C(C)C)NC(=O)[C@H](CC2CCCCC2)NC(=O)[C@H](CCN)NC1=O` [Compound 2251] ({CH2CO}-[Dap][4Pal]DWV[Bip]K[Orn][dL][Dab][Cha]V[Dap]C[Orn]-NH2; thioether N-14): 139 nM. For the molecule `CC(C)C[C@H]1NC(=O)[C@H](CCCN)NC(=O)[C@H](CCCCN)NC(=O)[C@H](Cc2ccc(-c3ccccc3)cc2)NC(=O)[C@H](C(C)C)NC(=O)[C@H](Cc2c[nH]c3ccccc23)NC(=O)[C@H](CC(=O)O)NC(=O)[C@H](Cc2ccncc2)NC(=O)[C@H](CN)NC(=O)CSC[C@@H](C(=O)N[C@@H](CCCN)C(N)=O)NC(=O)[C@H](CCCN)NC(=O)[C@H](C(C)C)NC(=O)[C@H](CC2CCCCC2)NC(=O)[C@H](CCN)NC1=O` [Compound 2253] ({CH2CO}-[Dap][4Pal]DWV[Bip]K[Orn][dL][Dab][Cha]V[Orn]C[Orn]-NH2; thioether N-14), the IC50 is 138 nM. The same measure for `CC(C)C[C@H]1NC(=O)[C@H](CCCN)NC(=O)[C@H](CCCCN)NC(=O)[C@H](Cc2ccc(-c3ccccc3)cc2)NC(=O)[C@H](C(C)C)NC(=O)[C@H](Cc2c[nH]c3ccccc23)NC(=O)[C@H](CC(=O)O)NC(=O)[C@H](Cc2ccncc2)NC(=O)[C@H](CN)NC(=O)CSC[C@@H](C(=O)N[C@@H](CCCN)C(N)=O)NC(=O)[C@H](CCCNC(=N)N)NC(=O)[C@H](C(C)C)NC(=O)[C@H](CC2CCCCC2)NC(=O)[C@H](CCN)NC1=O` [Compound 2254] ({CH2CO}-[Dap][4Pal]DWV[Bip]K[Orn][dL][Dab][Cha]VRC[Orn]-NH2; thioether N-14): 123 nM; for `Cc1cccc(C[C@@H]2NC(=O)[C@H](CC(=O)O)NC(=O)[C@H](Cc3ccc(OCC(=O)O)cc3)NC(=O)[C@H](CN)NC(=O)CSC[C@@H](C(=O)NCC(N)=O)NC(=O)[C@H]([C@@H](C)O)NC(=O)[C@H](C(C)C)NC(=O)[C@H](CC3CCCCC3)NC(=O)[C@H](CCN)NC(=O)[C@@H](CC(C)C)NC(=O)[C@H](CCCN)NC(=O)[C@H](CCCNC(N)=O)NC(=O)[C@H](Cc3ccc(-c4ccccc4)cc3)NC(=O)[C@H](C(C)C)NC2=O)c1` [Compound 2255] ({CH2CO}-[Dap]Y(Carboxymethyl)D[Phe(3-Me)]V[Bip][Cit][Orn][dL][Dab][Cha]VTCG-NH2; thioether N-14): 11.8 nM. The value for `Cc1cccc(C[C@@H]2NC(=O)[C@H](CC(=O)O)NC(=O)[C@H](Cc3ccc(OCC(=O)O)cc3)NC(=O)[C@H](CN)NC(=O)CSC[C@@H](C(=O)N[C@@H](CCN)C(N)=O)NC(=O)C(CCCN)NC(=O)[C@H](C(C)C)NC(=O)[C@H](CC3CCCCC3)NC(=O)[C@H](CCN)NC(=O)[C@@H](CC(C)C)NC(=O)[C@H](CCCN)NC(=O)[C@H](Cc3ccc(O)cc3)NC(=O)[C@H](Cc3ccc(-c4ccccc4)cc3)NC(=O)[C@H](Cc3ccc(O)cc3)NC2=O)c1` (stereo partly drawn) [Compound 2256] ({CH2CO}-[Dap]Y(Carboxymethyl)D[Phe(3-Me)]Y[Bip]Y[Orn][dL][Dab][Cha]V[ξOrn]C[Dab]-NH2; thioether N-14) was 4.9 nM; that for `Cc1cccc(C[C@@H]2NC(=O)[C@H](CC(=O)O)NC(=O)[C@H](Cc3ccc(OCC(=O)O)cc3)NC(=O)[C@H](CN)NC(=O)CSC[C@@H](C(=O)N[C@@H](CCN)C(N)=O)NC(=O)C(CCCO)NC(=O)[C@H](C(C)C)NC(=O)[C@H](CC3CCCCC3)NC(=O)[C@H](CCN)NC(=O)[C@@H](CC(C)C)NC(=O)[C@H](CCCN)NC(=O)[C@H](Cc3ccc(O)cc3)NC(=O)[C@H](Cc3ccc(-c4ccccc4)cc3)NC(=O)[C@H](C(C)C)NC2=O)c1` (stereo partly drawn) [Compound 2257] ({CH2CO}-[Dap]Y(Carboxymethyl)D[Phe(3-Me)]V[Bip]Y[Orn][dL][Dab][Cha]V[X6]C[Dab]-NH2; thioether N-14) was 7.7 nM; that for `C#CC[C@H](NC(=O)[C@H](CCN)NC(=O)[C@@H]1CSCC(=O)N[C@@H](CN)C(=O)N[C@@H](Cc2ccc(OCC(=O)O)cc2)C(=O)N[C@@H](CC(=O)O)C(=O)N[C@@H](Cc2cccc(C)c2)C(=O)N[C@@H](C(C)C)C(=O)N[C@@H](Cc2ccc(-c3ccccc3)cc2)C(=O)NC(CCCNC(N)=O)C(=O)N[C@@H](CCCN)C(=O)N[C@H](CC(C)C)C(=O)N[C@@H](CCN)C(=O)N[C@@H](CC2CCCCC2)C(=O)N[C@@H](C(C)C)C(=O)N[C@@H]([C@@H](C)O)C(=O)N1)C(=O)O` (stereo partly drawn) [Compound 2258] ({CH2CO}-[Dap]Y(Carboxymethyl)D[Phe(3-Me)]V[Bip][ξCit][Orn][dL][Dab][Cha]VTC[Dab][Pra]-OH; thioether N-14) was 14.9 nM. Consider `C#CC[C@H](NC(=O)[C@H](C)NC(=O)[C@@H]1CSCC(=O)N[C@@H](CN)C(=O)N[C@@H](Cc2ccc(OCC(=O)O)cc2)C(=O)N[C@@H](CC(=O)O)C(=O)N[C@@H](Cc2cccc(C)c2)C(=O)N[C@@H](C(C)C)C(=O)N[C@@H](Cc2ccc(-c3ccccc3)cc2)C(=O)N[C@@H](CCCNC(N)=O)C(=O)N[C@@H](CCCN)C(=O)N[C@H](CC(C)C)C(=O)N[C@@H](CCN)C(=O)N[C@@H](CC2CCCCC2)C(=O)N[C@@H](C(C)C)C(=O)N[C@@H]([C@@H](C)O)C(=O)N1)C(=O)O` [Compound 2259], for which the IC50 came to 44.3 nM.

Take `C#CC[C@H](NC(=O)CNC(=O)[C@@H]1CSCC(=O)N[C@@H](CN)C(=O)N[C@@H](Cc2ccc(OCC(=O)O)cc2)C(=O)N[C@@H](CC(=O)O)C(=O)N[C@@H](Cc2cccc(C)c2)C(=O)N[C@@H](C(C)C)C(=O)N[C@@H](Cc2ccc(-c3ccccc3)cc2)C(=O)N[C@@H](CCCNC(N)=O)C(=O)N[C@@H](CCCN)C(=O)N[C@H](CC(C)C)C(=O)N[C@@H](CCN)C(=O)N[C@@H](CC2CCCCC2)C(=O)N[C@@H](C(C)C)C(=O)N[C@@H]([C@@H](C)O)C(=O)N1)C(=O)O` [Compound 2260] ({CH2CO}-[Dap]Y(Carboxymethyl)D[Phe(3-Me)]V[Bip][Cit][Orn][dL][Dab][Cha]VTCG[Pra]-OH; thioether N-14): the IC50 was determined as 28.1 nM.
